{"source": "patent US12599576B2", "about": "(ANTECIP BIOVENTURES II LLC, priority 2022, dated 2026)", "key": {"[1]": {"assay": "Solubility in water of the drug substance powder"}, "[2]": {"system": "patients with agitation associated with Alzheimer's disease", "assay": "Phase 2/3 randomized, double-blind, controlled clinical trial of DM/BU in agitation associated with Alzheimer's disease", "format": "in vivo, human", "description": "A Phase ⅔ randomized, double-blind, controlled, multicenter, U.S. clinical trial was conducted to evaluate the efficacy and safety of DM/BU in patients with agitation associated with Alzheimer's disease. […] An independent data monitoring committee performed an interim futility analysis and recommended no further randomization to the bupropion arm. Subsequently, patients were randomized in a 1:1 ratio to receive DM/BU or placebo. […] The minimum score on the CMAI is 29, corresponding to the total absence of symptoms, with higher scores corresponding to greater agitation. The primary endpoint of the study was the change from baseline in the CMAI total score at Week 5. P-values were calculated based on least square mean estimates.\nInclusion criteria included male or female […], diagnosis of probable Alzheimer's disease, according to the 2011 NIA-AA criteria, diagnosis of agitation, according to the IPA provisional definition of agitation, MMSE score between 10 and 24, an NPI-AA score≥4, and community dwelling. Exclusion criterial included dementia of non-Alzheimer's type and current use of a selective serotonin reuptake inhibitor and/or a serotonin and norepinephrine inhibitor (SSRI/SNRI). Demographics and baseline characteristics are shown in Table 9 of U.S. Pat. No. 10,898,453."}, "[3]": {"assay": "Inventor's clinical-trial finding: plasma levels in CYP2D6 poor metabolizers vs other patients after combination of bupropion and dextromethorphan", "conditions": "combination of bupropion and dextromethorphan administered"}, "[4]": {"conditions": "CYP2D6 inhibited by administering quinidine; cited from earlier work"}, "[5]": {"assay": "Example 3 / FIG. 1: effect of CYP2D6 poor metabolizer status on pharmacokinetics of the tablet after 8 days of twice daily dosing", "conditions": "tablet 45 mg dextromethorphan hydrobromide/105 mg bupropion hydrochloride, 8 days twice daily; reference extensive or ultra-extensive CYP2D6 metabolizers; GMR"}}, "data": [{"compound": "CC(NC(C)(C)C)C(=O)c1cccc(Cl)c1.Cl", "note": "(racemic) [Bupropion hydrochloride, (±)-1-(3-chlorophenyl)-2-[(1,1-dimethylethyl)amino]-1-propanone hydrochloride]", "values": [{"measurement": "solubility in water", "setting": "[1]", "result": "highly soluble in water"}]}, {"compound": "Br.COc1ccc2c(c1)[C@]13CCCC[C@@H]1[C@H](C2)N(C)CC3", "note": "[Dextromethorphan hydrobromide, morphinan, 3-methoxy-17-methyl-, (9α, 13α, 14α), hydrobromide monohydrate]", "values": [{"measurement": "solubility in water", "setting": "[1]", "result": "sparingly soluble in water"}]}, {"compound": "CC(NC(C)(C)C)C(=O)c1cccc(Cl)c1", "note": "(centres unmarked) [bupropion]", "values": [{"measurement": "mean reduction from baseline in CMAI total score", "setting": "[2]; Week 5 (primary endpoint), placebo 11.5, DM/BU vs placebo p=0.010", "result": 10.0, "unit": "points"}, {"measurement": "adverse event: diarrhea", "setting": "[2]; both, human, in vivo, 5 weeks", "result": 6.1, "unit": "%"}, {"measurement": "adverse event: dizziness", "setting": "[2]; both, human, in vivo, 5 weeks", "result": 10.2, "unit": "%"}, {"measurement": "adverse event: somnolence", "setting": "[2]; both, human, in vivo, 5 weeks", "result": 4.1, "unit": "%"}, {"measurement": "rate of discontinuation due to adverse events", "setting": "[2]; both, human, in vivo, 5 weeks", "result": 2.0, "unit": "%"}, {"measurement": "serious adverse events reported, patients", "setting": "[2]; both, human, in vivo, 5 weeks", "result": 8.2, "unit": "%"}, {"measurement": "deaths in arm", "setting": "[2]; one death in the placebo arm", "result": "one"}]}, {"compound": "COc1ccc2c(c1)[C@]13CCCC[C@@H]1[C@H](C2)N(C)CC3", "note": "[dextromethorphan]", "values": [{"measurement": "Cmax and AUC of dextromethorphan in poor metabolizers vs patients who are not poor metabolizers", "setting": "[3]", "result": "significantly higher"}, {"measurement": "AUC0-12 of dextromethorphan higher for CYP2D6 poor metabolizers compared to non-poor metabolizers", "setting": "[4]", "result": "about 46%"}, {"measurement": "Cmax of dextromethorphan higher for poor metabolizers compared to non-poor metabolizers", "setting": "[4]", "result": "about 40%"}, {"measurement": "increase in dextromethorphan AUC0-12 for CYP2D6 poor metabolizers", "setting": "[5]", "result": 3.40, "unit": "fold"}, {"measurement": "increase in dextromethorphan Cmax for CYP2D6 poor metabolizers", "setting": "[5]", "result": 3.00, "unit": "fold"}]}]}
